Earlier results as cited in publication PMC4860896 (Theranostics, 2016).

Structure (SMILES): OCC1[C@H]2CC/C=C/CC[C@@H]12 (stereo partly drawn) [compound 4, (1R,8S,E)-bicyclo[6.1.0]non-4-en-9-ylmethanol]
- rate constant of reaction of sTCO with diphenyl-s-tetrazine derivatives (at 25 °C in water, prior study): up to 2.86 x 10^5 M^-1s^-1
- rate constant of tetrazine ligation, fastest measured (room temperature conjugations in water, listed as sTCO): ≤ 3.3e+06 M⁻¹ s⁻¹
